Laboratory results: publication PMC4078884 (Chemical science (Royal Society of Chemistry : 2010), 2014)

Experiments:
EcIspG = target: T1, EcIspG (Escherichia coli, UniProt P62620); experiment: CW-EPR; assay type: binding; details: 80 eq dithionite, 8 K
T1 sequence (P62620 1-372): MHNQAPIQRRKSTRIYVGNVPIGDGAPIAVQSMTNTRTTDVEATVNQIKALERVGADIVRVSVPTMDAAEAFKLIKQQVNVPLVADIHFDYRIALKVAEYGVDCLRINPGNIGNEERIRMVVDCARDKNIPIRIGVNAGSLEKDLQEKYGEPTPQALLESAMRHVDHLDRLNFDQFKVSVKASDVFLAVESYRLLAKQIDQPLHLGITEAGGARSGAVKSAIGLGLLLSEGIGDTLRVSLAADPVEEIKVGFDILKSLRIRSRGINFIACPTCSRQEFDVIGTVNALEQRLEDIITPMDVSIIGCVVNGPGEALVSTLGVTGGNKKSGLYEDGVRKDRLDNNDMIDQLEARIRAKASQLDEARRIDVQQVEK

PaIspG = target: T2, PaIspG (Pseudomonas aeruginosa, UniProt Q9HXJ4); experiment: CW-EPR; assay type: binding; details: 80 eq dithionite, 8 K
T2 sequence (Q9HXJ4 1-371): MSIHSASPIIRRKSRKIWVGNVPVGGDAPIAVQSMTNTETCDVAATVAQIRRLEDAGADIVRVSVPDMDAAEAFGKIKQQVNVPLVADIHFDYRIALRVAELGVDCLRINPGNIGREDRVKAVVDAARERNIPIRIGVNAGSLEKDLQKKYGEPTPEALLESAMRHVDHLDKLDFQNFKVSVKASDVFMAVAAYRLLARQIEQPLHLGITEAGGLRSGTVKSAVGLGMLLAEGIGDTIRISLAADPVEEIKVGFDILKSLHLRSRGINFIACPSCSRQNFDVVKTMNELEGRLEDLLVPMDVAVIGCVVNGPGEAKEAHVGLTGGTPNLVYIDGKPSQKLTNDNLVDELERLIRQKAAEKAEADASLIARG

SMILES: C/C(=C\COP(=O)(O)OP(=O)(O)O)CS [compound 8, thiolo-HMBPP]
- CW-EPR (EcIspG): E. coli (A, D)
- CW-EPR (PaIspG): P. aeruginosa (B, E)
